Measured values as given in patent US20030086987A1, “Salvianolic acid B” (priority 2001, published 2003).

Legend:
[1] = tested on: Human aortic smooth muscle cells (HASMCs); test: Rescue of oxLDL induced cell death, MTT assay; assay type: cell-based; conditions: then 40 μg/mL oxLDL for 24 hr, oxLDL alone 23.5%
Method: Human aortic smooth muscle cells (HASMCs, Cascade Biologics, Inc. Portland, Oreg.) were cultured in Medium 231 (Cascade Biologics, Inc.), supplemented with 5% smooth muscle growth serum (SMGS), 100 untis/mL penicillin, 100 μg/mL streptomycin, 1.25 μ/mL Fungizone (amphotericin B) at 37° C. in 5% CO2 saturated humidity atmosphere. The medium was changed every 4 days, and cells were detached by treatment with 0.05% trypsin, 0.02% EDTA solutions. […] Before each experiment, the medium was removed, and cells were washed and then cultured in serum-free medium containing the supplements indicated above but without SMGS. […] Then, 40 μg/mL oxLDL was added to the incubated medium for another 24 hr. The cytotoxic effect can be determined using the 3-(4,5-dimethylthiazol-2-yl)-2,5-diphenyltetrazolium bromide (MTT) assay method described in Boyd (In Principle of Practice of Oncology, […]., and Rosenberg, S. A. (Eds) Vol. 3, PPO Update, No. 10, 1989).

apoE (−) mice = test: Atherosclerotic area in the apoE (−) mice; assay type: in vivo; conditions: 0.15% cholesterol diet with 0.25% salvianolic acid B or 2% SAGE, 113 days
Method: 25-week apoE (−) mice from Jackson Laboratory were randomly divided into three groups. Animals in the control group (CT group) were fed with a diet containing 0.15% cholesterol (w/w) (a control diet). Second group (SB group) was fed with the control diet containing 0.25% salvianolic acid B (w/w); and third group (SAGE group) was fed with the control diet containing 2% SAGE (w/w). The feeding period was 113 days. SAGE was prepared as follows:
Salvia miltiorrhiza extract was obtained from extracts of the sliced and ground roots of Salvia miltiorrhiza by using an aqueous ethanol solution (water: ethanol =4:1, v/v). The weight to volume ration of Salvia miltiorrhiza to extraction solvent was 1:10 (w/v).
Angelica sinensis extract was obtained from ethanolic extracts (1:10, w/v).
Glycyrrhizae radix (Glycyrrhiza uralensis) extract was obtained from ethanolic extracts (1:10, w/v).
The weight ratio of Salvia miltiorrhiza extract, Angelica sinensis extract, and Glycyrrhiza uralensis extract was 2:1:1, respectively, based on the dried weights of the raw herbs used.

caspase-3 = test: Inhibition of oxLDL induced caspase-3 activation, Western blot in HASMCs; assay type: cell-based, Human; conditions: 1 or 10 μg/mL for 24 hr, then 20 μg/mL oxLDL for 24 hr
Method: Human aortic smooth muscle cells (HASMCs, Cascade Biologics, Inc. Portland, Oreg.) were cultured in Medium 231 (Cascade Biologics, Inc.), supplemented with 5% smooth muscle growth serum (SMGS), 100 untis/mL penicillin, 100 μg/mL streptomycin, 1.25 μ/mL Fungizone (amphotericin B) at 37° C. in 5% CO2 saturated humidity atmosphere. The medium was changed every 4 days, and cells were detached by treatment with 0.05% trypsin, 0.02% EDTA solutions. […] Before each experiment, the medium was removed, and cells were washed and then cultured in serum-free medium containing the supplements indicated above but without SMGS. […] The sample solution was heated at 100° C. for 5 min, cooled down to room temperature, and subjected to 12% SDS-polyacrylamide gel electrophoresis. Then, proteins were transferred to PVDF membranes, blocked with 5% nonfat milk in Tris-buffered saline-Tween 20 (0.1%) at room temperature for 2 hr, and incubated overnight at 4° C. with […] anti-caspase-3 antibody (dilution 1:1000). The membranes were washed three times in Tris-buffered saline-Tween 20, and antibody reactions were detected using horseradish peroxidase-conjugated goat anti-rabbit IgG (0.2 μg/mL) and LumiGLO chemiluminescent detection reagents (Bradford (1976) Analytical Biochem 72: 248-254). Activated caspase-3 (17 kD) was detected in HASMCs after oxLDL treatment.

IL-1β = test: Inhibition of oxLDL induced IL-1β production in HASMCs, sandwich ELISA; assay type: cell-based, Human; conditions: 1, 2.5 and 10 μg/mL for 24 hr, then 20 μg/mL oxLDL for 24 hr
Method: (§1) Human aortic smooth muscle cells (HASMCs, Cascade Biologics, Inc. Portland, Oreg.) were cultured in Medium 231 (Cascade Biologics, Inc.), supplemented with 5% smooth muscle growth serum (SMGS), 100 untis/mL penicillin, 100 μg/mL streptomycin, 1.25 μ/mL Fungizone (amphotericin B) at 37° C. in 5% CO2 saturated humidity atmosphere. The medium was changed every 4 days, and cells were detached by treatment with 0.05% trypsin, 0.02% EDTA solutions. […] Before each experiment, the medium was removed, and cells were washed and then cultured in serum-free medium containing the supplements indicated above but without SMGS. […] IL-1 production was determined with a sandwich ELISA using anti-IL-1 antibodies (e.g., IL-1β and IL-1ra ELISA kits from R&D Systems and Endogen, Inc. respectively).

IL-1ra = test: Inhibition of oxLDL induced IL-1ra production in HASMCs, sandwich ELISA; assay type: cell-based, Human; conditions: 1, 2.5 and 10 μg/mL for 24 hr, then 20 μg/mL oxLDL for 24 hr
Method: as §1

[2] = tested on: New Zealand White rabbits; test: Intima/media area ratio in cholesterol-fed rabbits after femoral artery denudation; assay type: in vivo; conditions: 2% cholesterol diet, six weeks, probucol 1.5 g/day, salvianolic acid B 375 mg/day; for ratio of the intima area to the media area, thoracic aorta section: CT group 0.1; for ratio of the intima area to the media area, aortic arch section: CT group 0.22; for ratio of the intima area to the media area, abdominal aorta section: CT group 0.58
Method: New Zealand White rabbits were randomly divided into three groups. […] Another group was fed with the control diet containing 1.5 g/day probucol (P group), and the third group was fed with the control diet containing 375 mg/day salvianolic acid B (Sal B group). After being fed for three weeks, all rabbits underwent a femoral artery denudation. After the operation, the diet fed to each group was maintained for anther three weeks. […] Thin sections (5 μm thick) were stained with Mayer's hematoxylin-eosin solution. […] See, e.g., Gordon et al. (1992) Proc […] USA 89: 11312-11316. In the CT group, the ratio of the intima area to the media area of the aortic arch section was 0.22 (±0.04).

| Structure (SMILES) | cell viability of the HASMCs ([1]; 1 μg/mL for 24 hr) | cell viability of the HASMCs ([1]; 1.25 μg/mL for 24 hr) | cell viability of the HASMCs ([1]; 10 μg/mL for 24 hr) | cell viability of the HASMCs ([1]; 20 μg/mL for 24 hr) | Inhibition (%) of atherosclerosis compared with control group (apoE (−) mice) | Intima area (apoE (−) mice; mean ± S.D.) | Media area (apoE (−) mice; mean ± S.D.) | Intima/Media (ratio) (apoE (−) mice; mean ± S.D., CT 0.770) | activated caspase-3 (17 kD) after oxLDL treatment (caspase-3) | oxLDL induced IL-1β production (IL-1β) | oxLDL induced IL-1ra production (IL-1ra) | ratio of the intima area to the media area, thoracic aorta section [2] | ratio of the intima area to the media area, aortic arch section [2] | ratio of the intima area to the media area, abdominal aorta section [2] |
| --- | --- | --- | --- | --- | --- | --- | --- | --- | --- | --- | --- | --- | --- | --- |
| O=C(/C=C/c1ccc(O)c2c1[C@H](C(=O)O[C@H](Cc1ccc(O)c(O)c1)C(=O)O)[C@@H](c1ccc(O)c(O)c1)O2)O[C@H](Cc1ccc(O)c(O)c1)C(=O)O [salvianolic acid B] | 68.3% (±5.3%) | 57.5% (±14.4%) | 57.6% (±18.7%) | 38.3% (±18.8%) | 83% | 1,563 ± 2,504 10^3 μm^2 | 9,763 ± 2,239 10^3 μm^2 | 0.128 ± 0.170 | no activated caspase-3 was observed | inhibit | inhibit | about 0.02 | about 0.07 | about 0.26 |
| CC(C)(Sc1cc(C(C)(C)C)c(O)c(C(C)(C)C)c1)Sc1cc(C(C)(C)C)c(O)c(C(C)(C)C)c1 [probucol, reference compound] | – | – | – | – | – | – | – | – | – | – | – | about 0.03 | about 0.1 | about 0.33 |
